Measured values taken from patent publication US5270334A, “4-methoxy-5-methyl-pyran-3-ol natural products and derivatives thereof” (E. R. Squibb & Sons, Inc., priority 1992, dated 1993).
≈ marks a conversion by molar mass, not a printed value.

Tests used:
Pseudomonas aeruginosa = assay: Antibacterial and antifungal activity of lanomycin, agar dilution assay (Table 4); type: cell-based; settings: SC8329; Pseudomonas aeruginosa SC 8329
Experimental: (§1) *Minimal inhibitory concentrations were determined by agar dilution assay

[1] = tested on: Trichophyton mentagrophytes; assay: as above; type: cell-based; settings: SC2637, Trichophyton mentagrophytes SC 2637
Experimental: as §1

Micrococcus luteus = assay: as above; type: cell-based; settings: SC2495; Micrococcus luteus SC 2495
Experimental: as §1

Candida guillermondii = assay: as above; type: cell-based; settings: SC2996, Candida guillermondii SC 2996
Experimental: as §1

Staphylococcus aureus = assay: as above; type: cell-based
Experimental: as §1

Candida albicans = assay: as above; type: cell-based
Experimental: as §1

Aspergillus fumigatus = assay: as above; type: cell-based; settings: SC2100, Aspergillus fumigatus SC 2100
Experimental: as §1

Klebsiella aerogenes = assay: as above; type: cell-based; settings: SC10440; Klebsiella aerogenes SC 10440
Experimental: as §1

Escherichia coli = assay: as above; type: cell-based; settings: SC8294; Escherichia coli SC 8294
Experimental: as §1

Proteus mirabilis = assay: as above; type: cell-based; settings: SC3855; Proteus mirabilis SC 3855
Experimental: as §1

Candida tropicalis = assay: as above; type: cell-based; settings: SC2963, Candida tropicalis SC 2963
Experimental: as §1

Trichophyton rubrum = assay: as above; type: cell-based; settings: SC9199, Trichophyton rubrum SC 9199
Experimental: as §1

Enterococcus faecalis = assay: as above; type: cell-based; settings: SC9011; Enterococcus faecalis SC 9011
Experimental: as §1

Microsporum canis = assay: as above; type: cell-based
Experimental: as §1
(§2) **Higher value is based on hazy growth; lower value for clearly

Epidermophyton floccosum = assay: as above; type: cell-based
Experimental: as §1, §2

lanosterol demethylase = molecular target: T1, lanosterol demethylase (Candida albicans, UniProt P10613); assay: inhibition of lanosterol demethylase, spectrophotometric carbon monoxide binding assay; settings: Candida albicans SGY677; read-out: concentration which gives 50% inhibition of carbon monoxide binding
T1 construct: endogenous in cells; host or cells: Candida albicans SGY677
Experimental: The inhibition of lanosterol demethylase was determined by two methods: the spectrophotometric carbon monoxide binding assay of Omura and Sato (J. Biol. Chem. 239:2370-2378, 1964) and by a radiolabeled metabolic assay.
Cells of Candida albicans, SGY677, were grown overnight without shaking at 30° C. in a medium consisting of yeast extract 1%, peptone 2%, glucose 2% and distilled water. Cells were harvested by centrifugation and resuspended in 0.65M mannitol to an optical density at 600 nm of 2.5. At this density 1 ml of cells was equal to 6.7 mg constant dry weight (105° C. for 18 hours).
Scopularin and its alcohol derivative of Example 4 were added to the enzyme and the inhibition of carbon monoxide binding determined over a range of inhibitor concentrations.

T1 sequence (P10613 whole entry): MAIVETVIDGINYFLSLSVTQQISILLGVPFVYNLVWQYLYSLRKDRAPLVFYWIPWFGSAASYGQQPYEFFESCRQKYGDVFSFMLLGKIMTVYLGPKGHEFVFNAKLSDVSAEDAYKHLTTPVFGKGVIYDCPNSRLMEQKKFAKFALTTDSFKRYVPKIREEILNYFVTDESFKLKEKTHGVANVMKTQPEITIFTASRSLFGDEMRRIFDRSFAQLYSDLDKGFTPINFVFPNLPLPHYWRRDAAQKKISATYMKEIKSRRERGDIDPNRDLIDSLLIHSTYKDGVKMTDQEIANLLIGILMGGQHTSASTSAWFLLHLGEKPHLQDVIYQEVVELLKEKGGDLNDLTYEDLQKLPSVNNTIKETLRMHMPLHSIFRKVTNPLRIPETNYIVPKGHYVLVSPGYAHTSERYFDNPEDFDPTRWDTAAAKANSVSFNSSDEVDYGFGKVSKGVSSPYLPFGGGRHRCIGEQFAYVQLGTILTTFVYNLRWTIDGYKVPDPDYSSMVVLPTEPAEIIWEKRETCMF

Row | SMILES | MIC (Pseudomonas aeruginosa) | MIC [1] | MIC (Micrococcus luteus) | MIC (Candida guillermondii) | MIC (Staphylococcus aureus; SC1276, Staphylococcus aureus SC 1276) | MIC (Staphylococcus aureus; SC2399, Staphylococcus aureus SC 2399) | MIC (Candida albicans; SC5314, Candida albicans SC 5314) | MIC (Candida albicans; SC11422, Candida albicans SC 11422) | MIC (Aspergillus fumigatus) | MIC (Klebsiella aerogenes) | MIC (Escherichia coli) | MIC (Proteus mirabilis) | MIC (Candida tropicalis) | MIC (Trichophyton rubrum) | MIC (Enterococcus faecalis) | MIC (Microsporum canis; SC9237, Microsporum canis SC 9237, higher value, based on hazy growth) | MIC (Microsporum canis; SC9237, Microsporum canis SC 9237, lower value, clearly discernible growth) | MIC (Epidermophyton floccosum; SC9185, Epidermophyton floccosum SC 9185, higher value, based on hazy growth) | MIC (Epidermophyton floccosum; SC9185, Epidermophyton floccosum SC 9185, lower value, clearly discernible growth) | IC50 (lanosterol demethylase)
1 | C/C=C/C=C/C=C(\C)[C@H]1OC[C@@H](C)[C@@H](OC)[C@@H]1OC(=O)CN (relative stereo) [Lanomycin] | > 100 µg/mL | 0.8 µg/mL (≈ 2.59 µM) | > 100 µg/mL | 1.6 µg/mL (≈ 5.17 µM) | > 100 µg/mL | > 100 µg/mL | > 100 µg/mL | 100 µg/mL (≈ 323 µM) | 100 µg/mL (≈ 323 µM) | > 100 µg/mL | > 100 µg/mL | > 100 µg/mL | 25 µg/mL (≈ 80.8 µM) | 1.6 µg/mL (≈ 5.17 µM) | > 100 µg/mL | 100 µg/mL (≈ 323 µM) | 1.6 µg/mL (≈ 5.17 µM) | 100 µg/mL (≈ 323 µM) | 1.6 µg/mL (≈ 5.17 µM) | 
2 | CCC/C=C/C=C/C=C(\C)[C@H]1OC[C@@H](C)[C@@H](OC)[C@@H]1OC(=O)CN (relative stereo) [Scopularin, (2α, 3β, 4α, 5α)-Tetrahydro-4-methoxy-5-methyl-2-(1-methyl-1,3,5-nonatrienyl)-2H-pyran-3-ol, aminoacetate ester] |  |  |  |  |  |  |  |  |  |  |  |  |  |  |  |  |  |  |  | 36 µM
